The text below walks through data of patent publication US8084471B2, “Proteomimetic compounds as inhibitors of the interaction of nuclear receptor with coactivator peptides” (Yale University, priority 2006, dated 2011).

The target in experiment [1] is T1, ERα (Homo sapiens, UniProt P03372).
T1 sequence (P03372 1-595): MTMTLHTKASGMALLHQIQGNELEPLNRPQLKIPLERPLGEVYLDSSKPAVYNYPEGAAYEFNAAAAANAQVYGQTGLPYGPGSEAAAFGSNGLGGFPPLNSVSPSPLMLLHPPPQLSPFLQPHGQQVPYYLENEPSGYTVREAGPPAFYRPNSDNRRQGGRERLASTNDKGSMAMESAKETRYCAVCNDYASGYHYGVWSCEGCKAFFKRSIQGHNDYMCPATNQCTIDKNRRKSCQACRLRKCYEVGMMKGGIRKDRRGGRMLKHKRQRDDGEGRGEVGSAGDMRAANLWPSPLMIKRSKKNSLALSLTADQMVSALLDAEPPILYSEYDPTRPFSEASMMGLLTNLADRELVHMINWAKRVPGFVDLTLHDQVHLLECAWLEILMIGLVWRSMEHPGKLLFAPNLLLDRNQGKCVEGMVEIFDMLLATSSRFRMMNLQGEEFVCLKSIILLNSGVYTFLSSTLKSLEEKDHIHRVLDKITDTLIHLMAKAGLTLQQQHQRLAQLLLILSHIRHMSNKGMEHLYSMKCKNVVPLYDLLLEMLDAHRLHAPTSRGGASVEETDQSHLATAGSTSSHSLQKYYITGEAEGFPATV
Nature of the experiment: Fluorescence polarization assay: displacement of rhodamine-labeled peptide D22 from estradiol-activated ER. It is filed as binding. Set-up: purchased Invitrogen. The following applies: for fluorescence polarization titration curve: FIG. 2; for Ki: ERα 75 nM, 17β-estradiol 2 μM, D22 1 nM; for affinity (in words): FP assay. (In general: In fluorescence polarisation assays a small probe gives low polarisation when free and higher when bound to something large.)

For experiment [2], the target named is T1, ERα. In words: Competitive radioligand assay with [3H]estradiol for the estradiol binding site. Details: purchased MDS Pharma Services (contract assay); host or cells: Sf9 insect cells. The following applies: ERα from human recombinant insect Sf9 cells. As for the experimental part:
Inhibition of coactivator binding by a small molecule involves either direct competition with the helical peptide for the ER surface or binding of the small molecule to the ligand binding site as an antagonist, deactivating the ER and preventing coactivator recruitment. To rule out the latter mechanism, a competitive radioligand assay with [^3H]estradiol was carried out to specifically measure the affinity of 3 for the estradiol binding site. According to the radioligand assay, 3 binds to this site with an affinity <0.001% the affinity of 17β-estradiol. […] From this it was concluded that the helix mimetics prevent the coactivator association through direct competition for its binding site on the ER surface. […]
Procedure: Ammonium sulfate precipitates of the hER were dissolved in TDEE buffer containing 100 mM KCl, 0.5 mM leupeptin, and 10% glycerol. […] The hER was incubated with a varied concentration of [^3H]estradiol, and the nonspecific binding was measured by a parallel incubation with [^3H]estradiol plus a 300-fold excess of estradiol for 15 h at 4° C. At the completion of the incubation, 50 μL of each mixture was removed and the total [^3H]estradiol concentration determined. […] The hydroxylapatite pellets were suspended in 1 mL of ethanol and counted in 5 mL of scintillation fluid, and the receptor-bound [^3H]estradiol was measured. […]

The target of experiment [3] is T1, ERα. Details: purchased Invitrogen. The settings on record: used to obtain Ki from IC50; D22 at 1 nM; read-out: Kd of the fluorescent peptide; cited from earlier work.

Ends that are not written are not given here.

Regarding `CC(C)Cc1cc(-c2c(CC(C)C)cc(O)c(=O)n2CC(C)C)ccn1` [Compound 1, 3-Hydroxy-1,5-diisobutyl-6-(2-isobutyl-4-pyridyl)-1H-pyridin-2-one], on ERα [1], the “fluorescence polarization titration curve” value is listed as “slopes rapidly downward”. The Ki (as a rule, the equilibrium dissociation constant of an inhibitor or competing ligand from its target) at ERα [1] (Table 1 left column) was determined as 34 µM. This compound had a decrease in affinity at ERα [1] (relative to compound 2) of 2 fold. For the compound `CC(C)CCn1c(-c2ccnc(CC(C)C)c2)c(CC(C)C)cc(O)c1=O` [Compound 2, 3-Hydroxy-5-isobutyl-6-(2-isobutyl-4-pyridyl)-1-(3-methylbutyl)-1H-pyridin-2-one], the affinity at ERα [1] (standard deviation in brackets) corresponds to a Ki of 16 µM. `CC(C)Cc1cc(-c2c(CC(C)C)cc(O)c(=O)n2CCc2ccccc2)ccn1` [Compound 3, 3-Hydroxy-5-isobutyl-6-(2-isobutyl-4-pyridyl)-1-(2-phenylethyl)-1H-pyridin-2-one]: the affinity on ERα [1] (standard deviation in brackets), expressed as Ki, was 9.4 µM. Also, the “affinity for the estradiol binding site relative to 17β-estradiol” value on ERα [2] is < 0.001%. For `CC(C)Cc1cc(-c2c(CC(C)C)cc(O)c(=O)n2CCC(C)(C)C)ccn1` [Compound 4, 3-hydroxy-5-isobutyl-6-(2-isobutyl-4-pyridyl)-1-(3,3-dimethylbutyl)1H-pyridin-2-one], on ERα [1] (standard deviation in brackets), the Ki is > 50 µM. Moreover, the “affinity (in words)” value at ERα [1] was “weak affinity”. With `CC(C)Cc1cc(O)c(=O)n(CCC(C)(C)C)c1-c1ccnc(C(C)(C)C)c1` [Compound 5, 6-(2-tert-Butyl-4-pyridyl)-3-hydroxy-5-isobutyl-1-(3,3-dimethylbutyl)1H-pyridin-2-one], the Ki on ERα [1] (standard deviation in brackets) is > 50 µM. For the same compound, on ERα [1], the “fluorescence polarization titration curve” value was “about 0.95” and the “affinity (in words)” value is reported as “weak affinity”. In turn, `CC(C)Cc1cc(O)c(=O)n(CCc2ccccc2)c1-c1ccnc(Cc2ccccc2)c1` [Compound 6, 6-(2-Benzyl-4-pyridyl)-3-hydroxy-5-isobutyl-1-(2-phenylethyl)-1H-pyridin-2-one] had a Ki on ERα [1] (standard deviation in brackets) of 6.5 µM. At ERα [1] (standard deviation in brackets), `CC(C)Cc1cc(O)c(=O)n(CCc2ccc3ccccc3c2)c1-c1ccnc(Cc2ccccc2)c1` [Compound 7, 6-(2-Benzyl-4-pyridyl)-3-hydroxy-5-isobutyl-1-(2-(2-naphthyl)ethyl)-1H-pyridin-2-one] had a Ki of 4.2 µM. Regarding “CLTERHKILHRLLQE [SRC-1 NR II, CLTERHKILHRLLQE, reference compound]”, the Ki at ERα [1] (standard deviation in brackets) amounted to 0.95 µM; on ERα [1] (Table 1 left column), 1 µM. Take “Rho-LPYEGSLLLKLLRAPVEEV-COOH [Compound D22, rhodamine-labeled peptide which contains a single LXXLL motif, FP probe]”: the Kd (in general, a measure of binding affinity in units of concentration) at ERα [3] is 0.031 µM.
